In patent US9534059B2, “TIKI inhibitors” (Children's Medical Center Corporation, priority 2012, dated 2017):
Entries after “also recorded” stand apart in the source; their conditions may differ.

Tests used:
TIKI2N = target: T1, TIKI2N (Homo sapiens, UniProt A6NFA1); assay: In vitro treatment of HA-Wnt3a with purified TIKI2N (cleavage, Western blotting); type: biochemical; conditions: for TIKI2N activity (cleavage of HA-Wnt3a) in the presence of protease inhibitor / Effects of divalent metals on TIKI2N activity: in vitro; for TIKI2N activity (cleavage of HA-Wnt3a) in the presence of protease inhibitor: purified TIKI2N + recombinant HA-Wnt3a, Western blotting; for Rescue of TIKI2N activity with divalent metals after inhibition with 1,10-Phenanthroline: 20 μM 1,10-Phenanthroline 1 hr, then 50 μM metal ion for another 2 hrs; for Effects of divalent metals on TIKI2N activity: 50 μM of each divalent metal ion, 2 hrs
T1 construct: which is the extracellular domain of TIKI2 fused with a carboxyl FLAG tag and a 6×HIS tag; made in house; host or cells: HEK293T
T1 sequence (A6NFA1 20-486 limits assumed): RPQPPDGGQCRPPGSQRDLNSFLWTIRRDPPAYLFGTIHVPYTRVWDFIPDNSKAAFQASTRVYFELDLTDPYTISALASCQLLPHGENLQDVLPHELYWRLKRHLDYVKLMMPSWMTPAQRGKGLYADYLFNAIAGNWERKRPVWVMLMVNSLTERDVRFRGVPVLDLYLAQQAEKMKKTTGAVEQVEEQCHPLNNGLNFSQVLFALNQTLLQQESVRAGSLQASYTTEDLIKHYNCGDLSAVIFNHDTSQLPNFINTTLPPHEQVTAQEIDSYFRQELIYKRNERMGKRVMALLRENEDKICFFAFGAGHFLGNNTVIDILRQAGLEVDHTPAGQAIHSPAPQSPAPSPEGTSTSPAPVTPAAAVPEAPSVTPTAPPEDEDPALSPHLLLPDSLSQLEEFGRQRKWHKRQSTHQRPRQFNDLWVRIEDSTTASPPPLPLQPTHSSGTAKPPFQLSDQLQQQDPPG
Description: HEK293T cells in 100 mm dishes were transfected with TIKI2N-, KRM2N-, TIKI2NΔ-FLAG-6×HIS (“6×HIS” disclosed as SEQ ID NO: 57) or HA-Wnt3a vectors. The medium containing transfection mixture was replaced with 6 ml fresh medium 24 hrs post-transfection, and incubated for another 24 hrs. To purify TIKI2N, KRM2N and TIKI2NΔ, cells were washed with PBS and lysed in ice-cold PBS containing 0.2% NP-40, 20 mM imidazole and the protease inhibitor cocktail (Roche) to make whole cell lysates (WCL). WCL was mixed with Ni-NTA agarose beads (QIAGEN) and incubated at 4° C. with rotation for 1 hr. The beads were pelleted by centrifugation and washed four times with PBS/0.2% NP-40 and the FLAG-6×HIS (“6×HIS” disclosed as SEQ ID NO: 57) fusion proteins were eluted with PBS/0.2% NP-40 containing 100 mM imidazole. The elute was diluted 3 time with PBS/0.2% NP-40 and were mixed with FLAG M2 agarose beads (Sigma). Following 2 hrs incubation with rotation at 4° C., the beads were pelleted by centrifugation and washed three times with PBS/0.2% NP-40 and one time with HEPES buffer (50 mM HEPES (pH 7.4), 100 mM NaCl, 0.2% NP-40). The FLAG fusion proteins were eluted with HEPES buffer containing 50 μg/ml 3×FLAG peptide. To purify HA-Wnt3a, the conditioned medium (CM) was collected and was cleared by centrifugation and 0.2% NP-40 was added. The CM was mixed with anti-HA agarose beads (Sigma). Following 2 hrs incubation with rotation at 4° C., the beads were pelleted by centrifugation and washed three times with PBS/0.2% NP-40 and one time with HEPES buffer (50 mM HEPES (pH 7.4), 100 mM NaCl, 0.2% NP-40). The HA-Wnt3a protein was eluted with HEPES buffer containing 300 μg/ml HA peptide.
About 50 ng purified TIKI2N, KRM2N, or TIKI2NΔ protein was mixed with 10 ng purified HA-Wnt3a in a total volume of 10 μl HEPES buffer (50 mM HEPES (pH 7.4), 100 mM NaCl, 0.2% NP-40) and incubated at 30° C. To examine TIKI2N activity in different pH conditions, the following buffer was used instead of HEPES, 100 mM sodium acetate (pH 5.5), 100 mM Tris-HCl (pH 6, 7, 8, 9) or 50 mM CAPS (pH 10, 11). The reaction product was analyzed by SDS-PAGE and Western blotting with anti-HA and anti-Wnt3a antibodies. For mass spectrometric analysis, 200 ng of recombinant Wnt3a (from Stem RD) was incubated with about 500 ng of TIKIN or KRM2N overnight at 30° C. and separated by SDS-PAGE. The Wnt3a bands were cut, trypsin digested and subjected to mass spectrometric analyses.
TIKI protease activity was characterized under in vitro conditions. […] Different protease inhibitors were applied to survey which protease family TIKI might belong to. […] Metalloproteases are defined by their dependence on divalent metals as co-factors (Barrett, 1998).

Wnt3a = assay: TOPFLASH assay of TIKI2N mutants co-transfected with Wnt3a in HEK293T cells; type: cell-based, human; conditions: 5, 2.5, 1.25 and 0.612 ng plasmid with Wnt3a 20 ng
Description: FIG. 8B. Bar graph showing the results of a TOPFLASH assay testing TIKI2 mutations in Human TIKI2N construct (no transmembrane domain). Decreasing doses of 5, 2.5, 1.25 and 0.612 ng of the indicated TIKI2N expression plasmid were cotransfected with Wnt3a (20 ng) in HEK293T cells.
HEK293T, HeLa, L and L-Wnt3a cells (from ATCC) were maintained in Dulbecco's modified Eagle's medium (DMEM; Invitrogen) supplemented with 10% fetal bovine serum (FBS) and 1% penicillin-streptomycin-glutamine (Invitrogen). Lipofectamine 2000 (Invitrogen) or Fugene6 (Roche) was used for all cell transfections. L and L-Wnt3a cells that stably express TIKI2 were generated by infecting cells with retroviruses and selected by puromycin. L cells stably expressing Wnt3a(FLAG) were established by transfecting L cells with a Wnt3a(FLAG) expressing vector and selected with neomycine. L cells stably expressing both Wnt3a(FLAG) and TIKI2 were also generated. TOPFLASH reporter assay was performed as previously described (MacDonald et al., 2008).
A Wnt-responsive reporter (TOP-FLASH) assay was performed to test mutations at T56A, H58A, E85A, E205A, H256A, R303A, H331A in a Human TIKI2N construct (no transmembrane domain). Decreasing doses of 5, 2.5, 1.25 and 0.612 ng of the indicated TIKI2N expression plasmid were co-transfected with Wnt3a (20 ng) in HEK293T cells. […] T56A, H256A, and R303A had no effect on TIM activity, and so are likely to be less important sites for function.

Row | Molecule | Effects of divalent metals on TIKI2N activity (TIKI2N) | TIKI activity of TIKI2N mutants (inhibition of Wnt3a-induced TOPFLASH) (Wnt3a) | further results
1 | c1cnc2c(c1)ccc1cccnc12 [1,10-phenanthroline] |  |  | TIKI2N activity (cleavage of HA-Wnt3a) in the presence of protease inhibitor (TIKI2N): potently inhibited; TIKI2N activity (cleavage of HA-Wnt3a) in the presence of protease inhibitor (TIKI2N; listed as 1, 10-Phenanthroline): sensitive
2 | CC(C)C[C@H](NC(=O)[C@@H](O)[C@H](N)Cc1ccccc1)C(=O)O [Bestatin] |  |  | TIKI2N activity (cleavage of HA-Wnt3a) in the presence of protease inhibitor (TIKI2N): not
3 | [Co+2] [Co^2+] | enhanced |  | Rescue of TIKI2N activity with divalent metals after inhibition with 1,10-Phenanthroline (TIKI2N): rescued; also recorded: fully restored
4 | [Cu+2] [Cu^2+] | inhibited TIKI2N activity |  | 
5 | O=C(O)CN(CCN(CC(=O)O)CC(=O)O)CC(=O)O [EDTA] |  |  | TIKI2N activity (cleavage of HA-Wnt3a) in the presence of protease inhibitor (TIKI2N): inhibited TIKI2N activity; also recorded: inhibited, albeit more mildly
6 | [Mn+2] [Mn^2+] | enhanced |  | Rescue of TIKI2N activity with divalent metals after inhibition with 1,10-Phenanthroline (TIKI2N): rescued; also recorded: fully restored
7 | [Ni+2] [Ni^2+] | inhibited TIKI2N activity |  | 
8 | [Zn+2] [Zn^2+] | inhibited TIKI2N activity |  | 
9 | H58A: alanine mutation in Human TIKI2N construct (no transmembrane domain) (protein, UniProt A6NFA1 20-494, looked up, variant H58A, extracellular domain) extracellular domain: RPQPPDGGQCRPPGSQRDLNSFLWTIRRDPPAYLFGTIAVPYTRVWDFIPDNSKAAFQASTRVYFELDLTDPYTISALASCQLLPHGENLQDVLPHELYWRLKRHLDYVKLMMPSWMTPAQRGKGLYADYLFNAIAGNWERKRPVWVMLMVNSLTERDVRFRGVPVLDLYLAQQAEKMKKTTGAVEQVEEQCHPLNNGLNFSQVLFALNQTLLQQESVRAGSLQASYTTEDLIKHYNCGDLSAVIFNHDTSQLPNFINTTLPPHEQVTAQEIDSYFRQELIYKRNERMGKRVMALLRENEDKICFFAFGAGHFLGNNTVIDILRQAGLEVDHTPAGQAIHSPAPQSPAPSPEGTSTSPAPVTPAAAVPEAPSVTPTAPPEDEDPALSPHLLLPDSLSQLEEFGRQRKWHKRQSTHQRPRQFNDLWVRIEDSTTASPPPLPLQPTHSSGTAKPPFQLSDQLQQQDPPGPASSSAPT |  | inactive | 
10 | E205A: alanine mutation in Human TIKI2N construct (no transmembrane domain) (protein, UniProt A6NFA1 20-494, looked up, variant E205A, extracellular domain) extracellular domain: RPQPPDGGQCRPPGSQRDLNSFLWTIRRDPPAYLFGTIHVPYTRVWDFIPDNSKAAFQASTRVYFELDLTDPYTISALASCQLLPHGENLQDVLPHELYWRLKRHLDYVKLMMPSWMTPAQRGKGLYADYLFNAIAGNWERKRPVWVMLMVNSLTERDVRFRGVPVLDLYLAQQAEKMKKTTGAVAQVEEQCHPLNNGLNFSQVLFALNQTLLQQESVRAGSLQASYTTEDLIKHYNCGDLSAVIFNHDTSQLPNFINTTLPPHEQVTAQEIDSYFRQELIYKRNERMGKRVMALLRENEDKICFFAFGAGHFLGNNTVIDILRQAGLEVDHTPAGQAIHSPAPQSPAPSPEGTSTSPAPVTPAAAVPEAPSVTPTAPPEDEDPALSPHLLLPDSLSQLEEFGRQRKWHKRQSTHQRPRQFNDLWVRIEDSTTASPPPLPLQPTHSSGTAKPPFQLSDQLQQQDPPGPASSSAPT |  | inactive | 
11 | E85A: alanine mutation in Human TIKI2N construct (no transmembrane domain) (protein, UniProt A6NFA1 20-494, looked up, variant E85A, extracellular domain) extracellular domain: RPQPPDGGQCRPPGSQRDLNSFLWTIRRDPPAYLFGTIHVPYTRVWDFIPDNSKAAFQASTRVYFALDLTDPYTISALASCQLLPHGENLQDVLPHELYWRLKRHLDYVKLMMPSWMTPAQRGKGLYADYLFNAIAGNWERKRPVWVMLMVNSLTERDVRFRGVPVLDLYLAQQAEKMKKTTGAVEQVEEQCHPLNNGLNFSQVLFALNQTLLQQESVRAGSLQASYTTEDLIKHYNCGDLSAVIFNHDTSQLPNFINTTLPPHEQVTAQEIDSYFRQELIYKRNERMGKRVMALLRENEDKICFFAFGAGHFLGNNTVIDILRQAGLEVDHTPAGQAIHSPAPQSPAPSPEGTSTSPAPVTPAAAVPEAPSVTPTAPPEDEDPALSPHLLLPDSLSQLEEFGRQRKWHKRQSTHQRPRQFNDLWVRIEDSTTASPPPLPLQPTHSSGTAKPPFQLSDQLQQQDPPGPASSSAPT |  | inactive | 
12 | H331A: alanine mutation in Human TIKI2N construct (no transmembrane domain) (protein, UniProt A6NFA1 20-494, looked up, variant H331A, extracellular domain) extracellular domain: RPQPPDGGQCRPPGSQRDLNSFLWTIRRDPPAYLFGTIHVPYTRVWDFIPDNSKAAFQASTRVYFELDLTDPYTISALASCQLLPHGENLQDVLPHELYWRLKRHLDYVKLMMPSWMTPAQRGKGLYADYLFNAIAGNWERKRPVWVMLMVNSLTERDVRFRGVPVLDLYLAQQAEKMKKTTGAVEQVEEQCHPLNNGLNFSQVLFALNQTLLQQESVRAGSLQASYTTEDLIKHYNCGDLSAVIFNHDTSQLPNFINTTLPPHEQVTAQEIDSYFRQELIYKRNERMGKRVMALLRENEDKICFFAFGAGAFLGNNTVIDILRQAGLEVDHTPAGQAIHSPAPQSPAPSPEGTSTSPAPVTPAAAVPEAPSVTPTAPPEDEDPALSPHLLLPDSLSQLEEFGRQRKWHKRQSTHQRPRQFNDLWVRIEDSTTASPPPLPLQPTHSSGTAKPPFQLSDQLQQQDPPGPASSSAPT |  | inactive | 
